In PubChem BioAssay (NCI):
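Values below derive from 48-hour exposures of cells grown in 96-well plates, with endpoints linearly interpolated between the two concentrations bracketing the appropriate inhibition level. GI50 is the concentration that inhibits growth by half. At the TGI there is no net growth.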

Key:
Experiment in all cases: DTP human tumour cell line panel, 48 h
T-47D breast = system: T-47D breast
U251 CNS = system: U251 CNS
NCI/ADR-RES ovarian = system: NCI/ADR-RES ovarian
MDA-MB-231 breast = system: MDA-MB-231 breast
NCI-H522 lung = system: NCI-H522 lung
HOP-92 NSCLC = system: HOP-92 NSCLC
HL-60(TB) leukemia = system: HL-60(TB) leukemia
IGROV1 ovarian = system: IGROV1 ovarian
SW-620 colon = system: SW-620 colon
M14 melanoma = system: M14 melanoma
KM12 colon = system: KM12 colon
K-562 leukemia = system: K-562 leukemia
SNB-75 CNS = system: SNB-75 CNS
COLO 205 colon = system: COLO 205 colon
HOP-62 NSCLC = system: HOP-62 NSCLC
SK-OV-3 ovarian = system: SK-OV-3 ovarian
HT29 colon = system: HT29 colon
UACC-62 melanoma = system: UACC-62 melanoma
RXF 393 renal = system: RXF 393 renal
SNB-19 CNS = system: SNB-19 CNS
TK-10 renal = system: TK-10 renal
OVCAR-4 ovarian = system: OVCAR-4 ovarian
UO-31 renal = system: UO-31 renal
ACHN renal = system: ACHN renal
A498 renal = system: A498 renal
SF-268 CNS = system: SF-268 CNS
SN12C renal = system: SN12C renal
UACC-257 melanoma = system: UACC-257 melanoma
LOX IMVI melanoma = system: LOX IMVI melanoma
HCC-2998 colon = system: HCC-2998 colon
OVCAR-3 ovarian = system: OVCAR-3 ovarian
RPMI-8226 leukemia = system: RPMI-8226 leukemia
MDA-MB-435 = system: MDA-MB-435
MCF7 breast = system: MCF7 breast
NCI-H226 lung = system: NCI-H226 lung
786-0 renal = system: 786-0 renal
HCT-116 colon = system: HCT-116 colon
MOLT-4 leukemia = system: MOLT-4 leukemia
MALME-3M melanoma = system: MALME-3M melanoma
BT-549 breast = system: BT-549 breast
PC-3 prostate = system: PC-3 prostate
CAKI-1 renal = system: CAKI-1 renal
SF-539 CNS = system: SF-539 CNS
CCRF-CEM leukemia = system: CCRF-CEM leukemia
SR leukemia = system: SR leukemia
SK-MEL-28 melanoma = system: SK-MEL-28 melanoma
OVCAR-5 ovarian = system: OVCAR-5 ovarian
EKVX NSCLC = system: EKVX NSCLC
HS 578T breast = system: HS 578T breast
SK-MEL-5 melanoma = system: SK-MEL-5 melanoma
NCI-H23 lung = system: NCI-H23 lung
HCT-15 colon = system: HCT-15 colon
DU-145 prostate = system: DU-145 prostate
A549 NSCLC = system: A549 NSCLC
SK-MEL-2 melanoma = system: SK-MEL-2 melanoma
OVCAR-8 ovarian = system: OVCAR-8 ovarian
SF-295 CNS = system: SF-295 CNS
NCI-H460 lung = system: NCI-H460 lung

Clc1ccc(N2COOC3(OOC2)C2CC4CC(C2)CC3C4)cc1
GI50 (T-47D breast): 4.97 µM | TGI (T-47D breast): > 100 µM | GI50 (U251 CNS): 11.9 µM | TGI (U251 CNS): 32.9 µM | GI50 (NCI/ADR-RES ovarian): 5.34 µM | TGI (NCI/ADR-RES ovarian): 74.9 µM | GI50 (MDA-MB-231 breast): 6.69 µM | TGI (MDA-MB-231 breast): > 57.9 µM | GI50 (NCI-H522 lung): 1750 nM | TGI (NCI-H522 lung): 6.91 µM | GI50 (HOP-92 NSCLC): 14.9 µM | TGI (HOP-92 NSCLC): 43.5 µM | GI50 (HL-60(TB) leukemia): 1550 nM | TGI (HL-60(TB) leukemia): 8.27 µM | GI50 (IGROV1 ovarian): 1810 nM | TGI (IGROV1 ovarian): 6.22 µM | TGI (SW-620 colon): > 57.8 µM | GI50 (M14 melanoma): 1480 nM | TGI (M14 melanoma): > 100 µM | GI50 (KM12 colon): 2020 nM | TGI (KM12 colon): > 100 µM | GI50 (K-562 leukemia): 543 nM | TGI (K-562 leukemia): > 39.5 µM | GI50 (SNB-75 CNS): 10.8 µM | TGI (SNB-75 CNS): 55.2 µM | GI50 (COLO 205 colon): 12.7 µM | TGI (COLO 205 colon): 90.8 µM | GI50 (HOP-62 NSCLC): 13.9 µM | TGI (HOP-62 NSCLC): 38.6 µM | GI50 (SK-OV-3 ovarian): > 100 µM | TGI (SK-OV-3 ovarian): > 100 µM | GI50 (HT29 colon): 9.93 µM | TGI (HT29 colon): > 60.1 µM | GI50 (UACC-62 melanoma): 1010 nM | TGI (UACC-62 melanoma): > 43 µM | GI50 (RXF 393 renal): 6.96 µM | TGI (RXF 393 renal): > 59.3 µM | GI50 (SNB-19 CNS): > 40 µM | TGI (SNB-19 CNS): > 100 µM | GI50 (TK-10 renal): 4.98 µM | TGI (TK-10 renal): 10.5 µM | GI50 (OVCAR-4 ovarian): 5.52 µM | TGI (OVCAR-4 ovarian): > 59.5 µM | GI50 (UO-31 renal): 579 nM | TGI (UO-31 renal): 2210 nM | GI50 (ACHN renal): 622 nM | TGI (ACHN renal): 6.03 µM | GI50 (A498 renal): 11.9 µM | TGI (A498 renal): > 100 µM | GI50 (SF-268 CNS): 5.88 µM | TGI (SF-268 CNS): > 67.4 µM | GI50 (SN12C renal): 5.35 µM | TGI (SN12C renal): > 56.9 µM | GI50 (UACC-257 melanoma): > 54.4 µM | TGI (UACC-257 melanoma): > 100 µM | GI50 (LOX IMVI melanoma): 150 nM | TGI (LOX IMVI melanoma): 2440 nM | GI50 (HCC-2998 colon): > 24.4 µM | TGI (HCC-2998 colon): > 100 µM | GI50 (OVCAR-3 ovarian): 13.2 µM | TGI (OVCAR-3 ovarian): 39.1 µM | GI50 (RPMI-8226 leukemia): 4.28 µM | TGI (RPMI-8226 leukemia): 14.7 µM | GI50 (MDA-MB-435): 1610 nM | TGI (MDA-MB-435): 13.2 µM | GI50 (MCF7 breast): 3.98 µM | TGI (MCF7 breast): > 46.1 µM | GI50 (NCI-H226 lung): > 61.2 µM | TGI (NCI-H226 lung): > 100 µM | GI50 (786-0 renal): 1210 nM | TGI (786-0 renal): 5.73 µM | GI50 (HCT-116 colon): 4.1 µM | TGI (HCT-116 colon): > 50.2 µM | GI50 (MOLT-4 leukemia): 3.82 µM | TGI (MOLT-4 leukemia): > 50.7 µM | GI50 (MALME-3M melanoma): 14.4 µM | TGI (MALME-3M melanoma): > 100 µM | GI50 (BT-549 breast): 5.96 µM | TGI (BT-549 breast): > 58 µM | GI50 (PC-3 prostate): 5.11 µM | TGI (PC-3 prostate): > 75.3 µM | GI50 (CAKI-1 renal): 299 nM | TGI (CAKI-1 renal): 19.5 µM | GI50 (SF-539 CNS): 4.74 µM | TGI (SF-539 CNS): 59.3 µM | GI50 (CCRF-CEM leukemia): 2810 nM | GI50 (SR leukemia): 2190 nM | TGI (SR leukemia): 11.4 µM | GI50 (SK-MEL-28 melanoma): > 30.8 µM | TGI (SK-MEL-28 melanoma): > 100 µM | GI50 (OVCAR-5 ovarian): 8.34 µM | TGI (OVCAR-5 ovarian): > 74.8 µM | GI50 (EKVX NSCLC): 4.17 µM | TGI (EKVX NSCLC): > 100 µM | GI50 (HS 578T breast): 8.99 µM | TGI (HS 578T breast): > 100 µM | GI50 (SK-MEL-5 melanoma): 1250 nM | TGI (SK-MEL-5 melanoma): > 24.2 µM | GI50 (NCI-H23 lung): 11.5 µM | TGI (NCI-H23 lung): 31.6 µM | GI50 (HCT-15 colon): 864 nM | TGI (HCT-15 colon): > 41.9 µM | GI50 (DU-145 prostate): 8.83 µM | TGI (DU-145 prostate): > 89 µM | GI50 (A549 NSCLC): 5.18 µM | TGI (A549 NSCLC): > 100 µM | GI50 (SK-MEL-2 melanoma): 10.5 µM | TGI (SK-MEL-2 melanoma): > 88.3 µM | GI50 (OVCAR-8 ovarian): 14.4 µM | TGI (OVCAR-8 ovarian): > 100 µM | GI50 (SF-295 CNS): 2990 nM | TGI (SF-295 CNS): 17.9 µM | GI50 (NCI-H460 lung): 1570 nM | TGI (NCI-H460 lung): 9.27 µM
